Laboratory results reported in patent US20110230476A1, “PI3 KINASE INHIBITORS AND USES THEREOF” (AVILA THERAPEUTICS, INC., priority 2009, published 2011).

How the values were obtained:
PI3Kα (p110α/p85α) = target: T1, PI3Kα (p110α/p85α) (Homo sapiens, UniProt P42336); experiment: HTRF assay, potency against active PI3Kα; type: biochemical; settings: HTRF; [ATP]=50 μM, [di-C8-PIP2]=10 μM; 30 min pre-incubation; read-out: PI3Kα Inhibition
T1 construct: purchased BPS Bioscience (San Diego, Calif.) or Millipore (Billerica, Mass.)
T1 sequence (P42336 whole entry): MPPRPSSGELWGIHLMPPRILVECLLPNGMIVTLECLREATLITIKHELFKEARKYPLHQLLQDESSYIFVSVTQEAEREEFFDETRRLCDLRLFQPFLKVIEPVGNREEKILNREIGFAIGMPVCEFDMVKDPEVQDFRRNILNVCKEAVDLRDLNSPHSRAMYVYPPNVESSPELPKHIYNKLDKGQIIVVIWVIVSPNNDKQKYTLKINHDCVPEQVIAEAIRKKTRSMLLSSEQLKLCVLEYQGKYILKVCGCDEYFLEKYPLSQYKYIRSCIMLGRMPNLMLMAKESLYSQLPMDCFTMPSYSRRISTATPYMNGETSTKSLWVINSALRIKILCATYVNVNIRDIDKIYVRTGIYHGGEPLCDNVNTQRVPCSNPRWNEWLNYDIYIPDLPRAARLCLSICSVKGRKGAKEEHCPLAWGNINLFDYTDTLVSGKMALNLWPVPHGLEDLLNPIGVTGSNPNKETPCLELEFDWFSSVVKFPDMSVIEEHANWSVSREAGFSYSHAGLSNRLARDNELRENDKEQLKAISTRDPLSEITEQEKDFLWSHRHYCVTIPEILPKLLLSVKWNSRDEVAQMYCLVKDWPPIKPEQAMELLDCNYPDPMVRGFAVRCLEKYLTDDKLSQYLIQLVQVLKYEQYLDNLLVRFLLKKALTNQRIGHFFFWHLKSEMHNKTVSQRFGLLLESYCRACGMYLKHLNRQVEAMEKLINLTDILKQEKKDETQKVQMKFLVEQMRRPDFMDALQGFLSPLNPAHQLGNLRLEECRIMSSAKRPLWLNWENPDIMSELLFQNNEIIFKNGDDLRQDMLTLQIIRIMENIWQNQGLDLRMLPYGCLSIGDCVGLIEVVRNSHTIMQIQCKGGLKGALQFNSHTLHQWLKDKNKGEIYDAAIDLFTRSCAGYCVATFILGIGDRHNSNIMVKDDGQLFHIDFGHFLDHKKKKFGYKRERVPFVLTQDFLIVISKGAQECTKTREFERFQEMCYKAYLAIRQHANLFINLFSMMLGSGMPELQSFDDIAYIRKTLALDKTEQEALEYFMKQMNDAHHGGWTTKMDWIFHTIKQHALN
T1 sequence (P27986 whole entry partner): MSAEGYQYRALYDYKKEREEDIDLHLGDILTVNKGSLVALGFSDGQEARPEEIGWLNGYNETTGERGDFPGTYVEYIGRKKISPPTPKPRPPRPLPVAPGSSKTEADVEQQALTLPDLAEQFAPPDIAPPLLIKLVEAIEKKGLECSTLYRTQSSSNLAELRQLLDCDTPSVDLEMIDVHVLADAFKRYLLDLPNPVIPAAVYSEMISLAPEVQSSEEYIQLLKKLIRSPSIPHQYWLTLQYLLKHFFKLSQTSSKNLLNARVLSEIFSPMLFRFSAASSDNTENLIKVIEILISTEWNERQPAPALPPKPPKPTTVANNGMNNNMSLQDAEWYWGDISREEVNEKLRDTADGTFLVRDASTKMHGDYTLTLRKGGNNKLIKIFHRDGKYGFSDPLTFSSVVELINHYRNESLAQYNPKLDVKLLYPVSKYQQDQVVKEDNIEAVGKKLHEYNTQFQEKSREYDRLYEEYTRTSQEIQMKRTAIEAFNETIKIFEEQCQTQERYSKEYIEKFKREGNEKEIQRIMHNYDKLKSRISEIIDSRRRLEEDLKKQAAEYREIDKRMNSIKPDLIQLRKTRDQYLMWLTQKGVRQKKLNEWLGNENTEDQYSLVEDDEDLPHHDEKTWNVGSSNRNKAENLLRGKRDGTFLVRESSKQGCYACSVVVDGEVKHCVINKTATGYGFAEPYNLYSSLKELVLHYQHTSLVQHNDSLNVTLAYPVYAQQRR
In short: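 Active p110/p85α lipid kinase reactions were started with ATP and run 30-60 minutes at 25 °C, then stopped and developed with HTRF detection mix. HTRF ratio converted to % inhibition against ±enzyme controls; IC50 from log[inhibitor] vs response, variable slope.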

Phospho-Akt(Ser473) [1] = experiment: Dose response in SKOV3 cells as determined by Western blot; type: cell-based; settings: Homo sapiens, SK-OV-3, 1 hr, Phospho-Akt normalized to total Akt, read-out: Immunoblot
Protocol: Dose Response in SKOV3 Cells as Determined by Western Blot
SKOV3 cells were plated in SKOV3 Growth Media (DMEM supplemented with 10% FBS and pen/strep) at a density of 4×10^5 cells per well of 12 well plates. Twenty four hours later the media was removed and replaced with 1 ml media containing test compound and 0.1% DMSO and cells were returned to the incubator for 1 hr. At the end of the hour, the media was removed and the cells were washed with PBS, then lysed and scraped into 30 ul of Cell Extraction Buffer (Biosource, Camarillo, Calif.) plus Complete Protease Inhibitor and PhosStop Phosphatase Inhibitor (Roche, Indianapolis, Ind.).
Cell debris was spun down at 13,000×g for 1 minute and the supernatant was taken as the cell lysate. Protein concentration of the lysate was determined by BCA Assay (Pierce Biotechnology, Rockford, Ill.) and 50 ug of protein was loaded per well onto a NuPAGE Novex 4-12% Bis-Tris gel (Invitrogen, Carlsbad, Calif.) then transferred to Immobilon PVDF-FL (Millipore, Billerica, Mass.).
The blot was blocked in Odyssey Blocking Buffer (Li-Cor Biosciences, Lincoln, Nebr.) for 1 hr then incubated overnight at 4° C. with mouse anti-Akt (#2920) and rabbit anti-Phospho-Akt(Ser473) (#9271)(Cell Signaling Technology, Boston, Mass.) antibodies, both diluted 1:1000 in PBS/Odyssey Buffer (1:1)+0.1% Tween-20. The blots were washed 3 times 5 minutes in PBS+0.2% Tween-20 then incubated for 1 hr at room temperature with fluorescently labeled secondary antibodies (Li-Cor) diluted 1:10000 in PBS/Odyssey Buffer (1:1)+0.1% Tween-20.
The blots were washed 2 times for 5 minutes in PBS+0.2% Tween-20, once in distilled water, then scanned on an Odyssey machine (Li-Cor). Band intensity was determined using the Odyssey software and Phopho-Akt signal was normalized to total Akt within samples, then expressed as a percentage of the untreated Phospho-Akt signal.

PI3Kγ (p120γ) = target: T2, PI3Kγ (p120γ) (Homo sapiens, UniProt P48736); experiment: HTRF assay, potency against active PI3Kγ; type: biochemical; settings: [ATP]=50 μM, [di-C8-PIP2]=10 μM, 30 min pre-incubation, read-out: PI3Kγ Inhibition
T2 construct: purchased BPS Bioscience (San Diego, Calif.) or Millipore (Billerica, Mass.)
T2 sequence (P48736 whole entry): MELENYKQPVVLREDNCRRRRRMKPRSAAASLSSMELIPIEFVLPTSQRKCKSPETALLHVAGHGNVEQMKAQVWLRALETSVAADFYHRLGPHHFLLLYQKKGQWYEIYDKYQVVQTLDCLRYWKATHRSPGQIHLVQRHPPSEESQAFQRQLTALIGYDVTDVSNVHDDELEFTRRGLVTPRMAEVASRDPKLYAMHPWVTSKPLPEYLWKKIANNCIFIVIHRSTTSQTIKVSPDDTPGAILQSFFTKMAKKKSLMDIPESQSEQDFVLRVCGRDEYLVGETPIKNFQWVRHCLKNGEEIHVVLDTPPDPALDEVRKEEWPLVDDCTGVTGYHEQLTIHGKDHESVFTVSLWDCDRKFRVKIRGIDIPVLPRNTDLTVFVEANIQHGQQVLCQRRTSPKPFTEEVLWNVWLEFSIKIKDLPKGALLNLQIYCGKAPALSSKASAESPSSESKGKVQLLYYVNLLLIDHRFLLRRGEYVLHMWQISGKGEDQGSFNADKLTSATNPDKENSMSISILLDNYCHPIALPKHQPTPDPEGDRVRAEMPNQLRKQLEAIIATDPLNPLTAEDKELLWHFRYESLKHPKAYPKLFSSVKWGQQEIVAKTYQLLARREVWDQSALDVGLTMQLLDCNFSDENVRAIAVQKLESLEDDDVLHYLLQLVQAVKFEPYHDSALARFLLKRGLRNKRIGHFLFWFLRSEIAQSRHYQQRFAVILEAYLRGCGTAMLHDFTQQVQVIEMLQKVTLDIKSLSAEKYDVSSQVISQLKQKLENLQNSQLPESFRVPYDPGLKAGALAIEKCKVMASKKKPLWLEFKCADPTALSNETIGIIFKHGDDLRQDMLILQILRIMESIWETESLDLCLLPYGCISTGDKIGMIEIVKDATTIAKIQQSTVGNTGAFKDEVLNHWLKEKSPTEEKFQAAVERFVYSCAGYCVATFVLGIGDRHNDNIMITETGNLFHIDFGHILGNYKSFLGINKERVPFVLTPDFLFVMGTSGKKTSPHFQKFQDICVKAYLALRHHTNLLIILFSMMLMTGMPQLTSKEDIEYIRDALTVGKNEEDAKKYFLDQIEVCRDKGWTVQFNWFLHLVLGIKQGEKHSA
Text: Homogeneous Time Resolved Fluorescence (HTRF) Assay Protocol for Potency Assessment Against the Active Forms of PI3Kα, PI3Kβ, and PI3Kγ
The protocol below describes an end-point, competition-binding HTRF assay used to measure inherent potency of test compounds against active PI3Kα (p110α/p85α), PI3Kβ (p110β/p85α), and PI3Kγ (p120γ) enzymes. The mechanics of the assay platform are best described by the vendor (Millipore, Billerica, Mass.) on their website at the following URL: www.millipore.com/coa/tech1/74jt4z.
Briefly, Stop solution (Stop A, #33-007 and Stop B, #33-009; 3:1 ratio) and Detection Mix (from DMC, #33-015 with DMA, #33-011 and DMB, #33-013; 18:1:1 ratio) were prepared as recommended by the manufacturer about 2 hrs prior to use. Additionally, 1× reaction buffer (from 4× buffer stock# 33-003), 1.4× stocks of PI3Kα, PI3Kβ, and PI3Kγ enzymes from BPS Bioscience (San Diego, Calif.) or Millipore (Billerica, Mass.) with di-C8-PIP2 lipid substrate (#33-005), and a 4×ATP solution (#A7699 Sigma/Aldrich; St. Louis, Mo.) were prepared in 1× reaction buffer. 15 μL of PI3K enzymes and lipid substrate mix were pre-incubated in a Corning (#3573) 384-well, black, non-treated microtiter plate (Corning, N.Y.) for 30 min at 25° C. with a 0.5 μL volume of 50% DMSO and serially diluted compounds prepared in 50% DMSO. Lipid kinase reactions were started with the addition of 5 μL of ATP solution, mixed for 15 sec on a rotary plate shaker and incubated for 30-60 minutes at 25° C. Next, reactions were stopped with a 5 μL addition of Stop solution immediately followed by a 5 μL volume of Detection Mix. Stopped reactions were equilibrated for 1 and 18 hrs at room temperature and read in a Synergy^4 plate reader from BioTek (Winooski, Vt.) at λex330-80/λem620-35 and λem665-7.5. At the conclusion of each assay, the HTRF ratio from fluorescence emission values for each well was calculated and % Inhibition determined from averaged controls wells (+/−PI3K enzyme). % Inhibition values for each compound were then plotted against inhibitor concentration to estimate IC50 from log [Inhibitor] vs Response, Variable Slope model in GraphPad Prism from GraphPad Software (San Diego, Calif.).
[Reagent] used in optimized protocol: • [p110α/p85α]=0.5-1.5 nM, [ATP]=50 μM, [di-C8—PIP2]=10 μM • [p110β/p85α]=0.75 nM, [ATP]=50 μM, [di-C8—PIP2]=10 μM • [p120γ]=2-2.5 nM, [ATP]=50 μM, [di-C8—PIP2]=10 μM • (ATP KMapp for both enzymes was estimated to be 40-70 μM)

Phospho-Akt(Ser473) [2] = experiment: Dose response in SKOV3 cells as determined by in-cell Western; type: cell-based; settings: Homo sapiens, SK-OV-3; SKOV3 cells, 1 hr; read-out: pAKT Inhibition in cell Western
In short: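 SKOV3 cells treated with compound for 1 hr, then formaldehyde-fixed, permeabilised and stained overnight for phospho-Akt(Ser473) with anti-tubulin as a reference. Infrared secondary antibodies read at 680 and 800 nm channels by in-cell Western imaging.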

PI3K = PI3K HCT116 cellular assay (Western blot); type: cell-based; settings: Homo sapiens, HCT-116, HCT116 colon cancer cells, 1 hour incubation, read-out: PI3K Inhibition
Protocol: PI3K HCT116 Cellular Assay
Selected compounds were assayed in HCT116 colon cancer cells. […] Cells were then washed with PBS, lysed and the protein lysates were then recovered and analyzed by Western blot.

| IC50 (PI3Kα (p110α/p85α)) [nM] | IC50 (PI3Kγ (p120γ)) [nM] | EC50 (Phospho-Akt(Ser473) [2]) [nM] | EC50 (PI3K) [nM] | SMILES | EC50 (Phospho-Akt(Ser473) [1]) [nM] |
| --- | --- | --- | --- | --- | --- |
| 10 to 100 |  |  |  | C=CC(=O)Nc1ccc(CCNC(=O)c2cc(-c3cnc(N)nc3)nc(N3CCOCC3)c2)cc1 [XII-2, N-(4-acrylamidophenethyl)-2-(2-aminopyrimidin-5-yl)-6-morpholinoisonicotinamide] | ≥ 1000 |
| 10 to 100 |  |  |  | C=CC(=O)Nc1ccc(CN(C)Cc2cc3nc(-c4cnc(N)nc4)nc(N4CCOCC4)c3s2)cc1 [II-a-176, N-(4-((((2-(2-aminopyrimidin-5-yl)-4-morpholinothieno[3,2-d]pyrimidin-6-yl)methyl)(methyl)amino)methyl)phenyl)acrylamide] | 10 to 100 |
| 10 to 100 | > 1000 |  |  | C/C=C/C(=O)CCCC(=O)N1CCN(Cc2cc3nc(-c4cccc5[nH]ncc45)nc(N4CCOCC4)c3s2)CC1 [II-a-22, (E)-1-(4-((2-(1H-indazol-4-yl)-4-morpholinothieno[3,2-d]pyrimidin-6-yl)methyl)piperazin-1-yl)oct-6-ene-1,5-dione] | 10 to 100 |
| 10 to 100 |  |  |  | C=CC(=O)Nc1ccc(C(=O)N2CC=C(c3cc4nc(-c5cnc(N)nc5)nc(N5CCOCC5)c4s3)CC2)cc1 [II-a-156, N-(4-(4-(2-(2-aminopyrimidin-5-yl)-4-morpholinothieno[3,2-d]pyrimidin-6-yl)-1,2,3,6-tetrahydropyridine-1-carbonyl)phenyl)acrylamide] | ≤ 10 |
| 100 to 1000 |  | 10 to 100 |  | C=CC(=O)Nc1ccc(COCc2cc3nc(-c4cnc(N)nc4)nc(N4CCOCC4)c3s2)cc1 [II-a-173, N-(4-(((2-(2-aminopyrimidin-5-yl)-4-morpholinothieno[3,2-d]pyrimidin-6-yl)methoxy)methyl)phenyl)acrylamide] | ≤ 10 |
| < 10 |  | 10 to 100 |  | O=C(/C=C/c1ccccc1)CCC(=O)N1CCN(C(=O)c2cc3nc(-c4cccc5[nH]ncc45)nc(N4CCOCC4)c3s2)CC1 [II-a-142, (E)-1-(4-(2-(1H-indazol-4-yl)-4-morpholinothieno[3,2-d]pyrimidine-6-carbonyl)piperazin-1-yl)-6-phenylhex-5-ene-1,4-dione] | 10 to 100 |
| 100 to 1000 |  | 10 to 100 |  | C=CC(=O)Nc1ccc(CC(=O)N2CCC(n3ncc4c(N5CCOCC5)nc(-c5cnc(N)nc5)nc43)CC2)cc1 [VII-13, N-(4-(2-(4-(6-(2-aminopyrimidin-5-yl)-4-morpholino-1H-pyrazolo[3,4-d]pyrimidin-1-yl)piperidin-1-yl)-2-oxoethyl)phenyl)acrylamide] | 10 to 100 |
| < 10 | > 1000 |  | 20 to 100 | C/C=C/C(=O)CCC(=O)N1CCN(CC#Cc2cc3nc(-c4cccc(O)c4)nc(N4CCOCC4)c3s2)CC1 [II-a-48, (E)-1-(4-(3-(2-(3-hydroxyphenyl)-4-morpholinothieno[3,2-d]pyrimidin-6-yl)prop-2-ynyl)piperazin-1-yl) hept-5-ene-1,4-dione] |  |
| 10 to 100 |  |  |  | C=CC(=O)Nc1ccc(CCNC(=O)c2cc3nc(-c4cnc(N)nc4)nc(N4CCOCC4)c3s2)cc1 [II-a-154, N-(4-acrylamidophenethyl)-2-(2-aminopyrimidin-5-yl)-4-morpholinothieno[3,2-d]pyrimidine-6-carboxamide] | ≤ 10 |
| 100 to 1000 | > 1000 |  | 500 to 2000 | C=C(C)C(=O)CCCC(=O)N1CCN(c2ccnc3ccc(/C=C4\SC(Nc5c(Cl)cccc5Cl)=NC4=O)cc23)CC1 [V-3, (Z)-1-(4-(6-((2-(2,6-dichlorophenylamino)-4-oxothiazol-5(4H)-ylidene)methyl)quinolin-4-yl)piperazin-1-yl)-6-methylhept-6-ene-1,5-dione] |  |
| 100 to 1000 |  |  |  | C=CC(=O)Nc1ccc(OCc2cc3nc(-c4cnc(N)nc4)nc(N4CCOCC4)c3s2)cc1 [II-a-172, N-(4-((2-(2-aminopyrimidin-5-yl)-4-morpholinothieno[3,2-d]pyrimidin-6-yl)methoxy)phenyl)acrylamide] | ≤ 10 |
| 10 to 100 | 100 to 1000 |  | 100 to 500 | C=CS(=O)(=O)N(C)Cc1cc2nc(-c3cccc(O)c3)nc(N3CCOCC3)c2s1 [II-a-29, N-((2-(3-hydroxyphenyl)-4-morpholinothieno[3,2-d]pyrimidin-6-yl)methyl)-N-methylethenesulfonamide] |  |
| 10 to 100 | > 1000 |  | 100 to 500 | C=CC(=O)N1CCN(CC#Cc2cc3nc(-c4cccc(O)c4)nc(N4CCOCC4)c3s2)CC1 [II-a-47, 1-(4-(3-(2-(3-hydroxyphenyl)-4-morpholinothieno[3,2-d]pyrimidin-6-yl)prop-2-ynyl)piperazin-1-yl)prop-2-en-1-one] |  |
| < 10 |  |  |  | C/C=C/C(=O)CCC(=O)N1CCC(C#Cc2cc3nc(-c4cccc(O)c4)nc(N4CCOCC4)c3s2)CC1 [II-a-89, (E)-1-(4-((2-(3-hydroxyphenyl)-4-morpholinothieno[3,2-d]pyrimidin-6-yl)ethynyl)piperidin-1-yl)hept-5-ene-1,4-dione] | 10 to 100 |
| < 10 |  |  |  | C=CC(=O)NCc1cccc(-c2cc3nc(-c4cccc(O)c4)nc(N4CCOCC4)c3s2)c1 [II-a-64, N-(3-(2-(3-hydroxyphenyl)-4-morpholinothieno[3,2-d]pyrimidin-6-yl)benzyl)acrylamide] | 10 to 100 |
| 100 to 1000 |  |  |  | CC(C)=CC(=O)CCCC(=O)N1CCC(c2cc3nc(-c4cnc(N)nc4)cc(N4CCOCC4)c3s2)CC1 [II-g-6, 1-(4-(5-(2-aminopyrimidin-5-yl)-7-morpholinothieno[3,2-b]pyridin-2-yl)piperidin-1-yl)-7-methyloct-6-ene-1,5-dione] | 100 to 1000 |
